From publication PMC5902452, “In silico optimization of a guava antimicrobial peptide enables combinatorial exploration for peptide design” (Nature Communications, 2018)
In brackets after ≈: the same amount, converted by molar mass. Peptide text beside a SMILES is read from it.

Tests used:
human erythrocytes = assay: Hemolytic assay; conditions: SPOT-synthesized crude peptides; human red blood cells in NaCl 0.85%, 1 h, 37 °C; hemoglobin release at 546 nm; highest concentration 200 μg mL−1; 100% of hemolysis was not observed
Method: Fresh human venous blood was collected from volunteers in Vacutainer collection tubes containing sodium heparin as an anticoagulant (BD Biosciences, Franklin Lakes, NJ). The blood was centrifuged applying 151 × g force (1500 rpm) and the serum was removed and the blood cells were replaced and washed three times with the same volume of sterile NaCl 0.85% solution. Concentrated red blood cells were diluted tenfold in NaCl 0.85% solution and then exposed at twofold dilutions of peptides for 1 h at 37 °C, at identical concentrations used for antimicrobial assays, in the ratio of 1:1 (v/v), achieving a final volume of 100 μL. The assay was carried out in 96-well polypropylene microtiter plates. The positive control wells contained 1% of Triton X-100, representing 100% cell lysis, and negative control wells contained sterile saline. Hemoglobin release was monitored chromogenically at 546 nm using a microplate reader.

[1] = tested on: P. aeruginosa H1001 (fliC::luxCDABE); assay type: cell-based, Pseudomonas aeruginosa; conditions: SPOT-synthesized unpurified crude peptide (~70% purity); bioluminescent engineered P. aeruginosa; BM2 medium; 4 h, 37 °C; reduction of luminescence; 200 to 3 μg mL−1 tested
Method: A peptide array composed of 20 peptides (15 guavanins, 4 Pg-AMP1 fragments, and magainin 2) was designed and synthesized by Kinexus Bioinformatics Corporation (Vancouver, BC). Peptides were produced in a standard mass of 80 μg by using cellulose support in SPOT technology. The crude synthetic peptides were obtained from cellulose membrane discs that had already been treated with ammonia gas to release the peptides from the membrane. Peptides were then dissolved overnight in distilled water and subsequently evaluated for their biological activities, as described below.
The antimicrobial activity of the synthesized peptides was evaluated against an engineered luminescent P. aeruginosa H1001 (fliC::luxCDABE) strain in 96-well microplates. Aqueous solutions of peptides released from the cellulose spots were diluted twofold in BM2 medium [62 mM potassium phosphate buffer pH 7; 2 mM MgSO4; 10 μM FeSO4; 0.4% (wt/vol) glucose] down the eight wells of a 96-well plate, achieving a final volume of 25 μL in each well. Subsequently, 50 μL of overnight culture of P. aeruginosa H1001 (fliC::luxCDABE) were subcultured in 5 mL of fresh LB media and grown until they reached an OD600 of 0.4. This growing bacteria culture was then diluted 4:100 (v/v) into fresh BM2 media and 25 μL of this diluted bacterial culture was transferred to the microplate wells containing 25 μL of peptide solution. The final peptide concentrations tested ranged from 200 to 3 μg mL^−1. The plates were incubated for 4 h at 37 °C with constant shaking at 50 rpm. Luminescence was measured on a Tecan […]luor Plus Microplate Reader (Tecan US, Morrisville, NC). The antimicrobial activity was evaluated by the ability of the peptides to reduce the luminescence of P. aeruginosa-lux strain compared to untreated cells. The AMP magainin 2 and the carbapenem meropenem were used as positive controls and distilled water was used as a negative control.

Work on `CC(C)[C@H](NC(=O)CNC(=O)[C@H](CCC(N)=O)NC(=O)CNC(=O)[C@@H](NC(=O)[C@@H]1CCCN1C(=O)[C@H](CCC(N)=O)NC(=O)CN)C(C)C)C(=O)N[C@@H](CCC(=O)O)C(=O)N[C@@H](CCCNC(=N)N)C(=O)N[C@@H](CO)C(=O)N[C@@H](Cc1c[nH]cn1)C(=O)N[C@@H](CC(=O)O)C(=O)N[C@@H](CC(=O)O)C(=O)N[C@@H](CC(N)=O)C(=O)N[C@@H](CCCNC(=N)N)C(=O)N[C@@H](CC(N)=O)C(=O)N[C@@H](CCC(N)=O)C(=O)N1CCC[C@H]1C(=O)N[C@@H](CCCNC(=N)N)C(N)=O` [Fragment 4 (hydrophobic moment)] (H-GQPVGQGVERSHDDNRNQPR-NH2) yielded a Hemolysis (human erythrocytes) greater than 200 µg/mL and an MIC [1] greater than 200 µg/mL.

Molecule `CC[C@H](C)[C@H](NC(=O)[C@H](CO)NC(=O)[C@H](CCC(=O)O)NC(=O)[C@H](Cc1ccc(O)cc1)NC(=O)[C@@H](NC(=O)[C@H](CCC(N)=O)NC(=O)[C@@H](N)CCCNC(=N)N)[C@@H](C)CC)C(=O)N[C@@H](CCC(=O)O)C(=O)N[C@@H](CCC(N)=O)C(=O)N[C@@H](C)C(=O)N[C@@H](CC(C)C)C(=O)N[C@@H](CCCNC(=N)N)C(=O)N[C@@H](CCCNC(=N)N)C(=O)NCC(=O)N[C@@H](Cc1ccc(O)cc1)C(=O)N[C@@H](CCCNC(=N)N)C(=O)N[C@@H](CO)C(=O)N[C@@H](Cc1ccc(O)cc1)C(=O)N[C@@H](CCCNC(=N)N)C(=O)N[C@@H](CCCNC(=N)N)C(N)=O` [Guavanin 7] (H-RQIYESIEQALRRGYRSYRR-NH2) has a Hemolysis (human erythrocytes) greater than 200 µg/mL and an MIC [1] of 200 µg/mL (≈ 76.9 µM).

`CC[C@H](C)[C@H](NC(=O)[C@H](CCCNC(=N)N)NC(=O)[C@H](CC(N)=O)NC(=O)CNC(=O)[C@H](Cc1ccc(O)cc1)NC(=O)[C@H](CCCNC(=N)N)NC(=O)[C@H](CO)NC(=O)[C@H](C)NC(=O)[C@H](CCC(N)=O)NC(=O)[C@H](CCC(=O)O)NC(=O)[C@H](Cc1ccc(O)cc1)NC(=O)[C@H](CS)NC(=O)[C@H](CCCCN)NC(=O)[C@H](CCSC)NC(=O)[C@H](Cc1ccccc1)NC(=O)[C@H](CO)NC(=O)[C@@H](N)CCCNC(=N)N)C(=O)N[C@@H](CC(C)C)C(=O)N[C@@H](CCCNC(=N)N)C(=O)N[C@@H](CCCNC(=N)N)C(N)=O` [Guavanin 14] (H-RSFMKCYEQASRYGNRILRR-NH2) showed a Hemolysis (human erythrocytes) greater than 200 µg/mL and an MIC [1] of 12.5 µg/mL (≈ 4.93 µM).

Work on `CC[C@H](C)[C@H](NC(=O)[C@H](CCCNC(=N)N)NC(=O)[C@H](CC(N)=O)NC(=O)[C@H](Cc1ccccc1)NC(=O)[C@H](Cc1ccc(O)cc1)NC(=O)[C@H](CCCNC(=N)N)NC(=O)[C@H](Cc1ccccc1)NC(=O)[C@H](C)NC(=O)[C@H](CCC(=O)O)NC(=O)[C@H](CCC(=O)O)NC(=O)[C@H](Cc1ccc(O)cc1)NC(=O)[C@H](CCSC)NC(=O)[C@H](CCC(=O)O)NC(=O)[C@H](CCSC)NC(=O)[C@H](CC(C)C)NC(=O)[C@H](CCCCN)NC(=O)[C@@H](N)CCCNC(=N)N)C(=O)N[C@@H](CO)C(=O)N[C@@H](CCCNC(=N)N)C(=O)N[C@@H](CCCNC(=N)N)C(N)=O` [Guavanin 5] (H-RKLMEMYEEAFRYFNRISRR-NH2) yielded a Hemolysis (human erythrocytes) greater than 200 µg/mL and an MIC [1] of 100 µg/mL (≈ 37.1 µM).

Work on `N=C(N)NCCC[C@H](NC(=O)CNC(=O)[C@H](CO)NC(=O)CNC(=O)[C@H](Cc1ccc(O)cc1)NC(=O)CNC(=O)CNC(=O)CNC(=O)[C@H](Cc1ccc(O)cc1)NC(=O)[C@H](CCCNC(=N)N)NC(=O)CNC(=O)CNC(=O)CNC(=O)[C@H](Cc1ccc(O)cc1)NC(=O)CNC(=O)CNC(=O)[C@H](Cc1ccc(O)cc1)NC(=O)CNC(=O)[C@H](Cc1ccc(O)cc1)NC(=O)[C@@H](N)CCCNC(=N)N)C(N)=O` [Fragment 2 (net charge)] (H-RYGYGGYGGGRYGGGYGSGR-NH2) yielded a Hemolysis (human erythrocytes) of 100 µg/mL and an MIC [1] of 200 µg/mL (≈ 99.2 µM).

`CSCC[C@H](NC(=O)[C@H](CC(C)C)NC(=O)[C@H](Cc1ccc(O)cc1)NC(=O)[C@@H](N)CCCNC(=N)N)C(=O)N[C@@H](CCC(=O)O)C(=O)N[C@@H](Cc1ccc(O)cc1)C(=O)N[C@@H](C)C(=O)N[C@@H](CCC(=O)O)C(=O)N[C@@H](CCC(N)=O)C(=O)N[C@@H](C)C(=O)N[C@@H](CCCCN)C(=O)N[C@@H](CCCNC(=N)N)C(=O)N[C@@H](CC(=O)O)C(=O)N[C@@H](C)C(=O)N[C@@H](CCCCN)C(=O)N[C@@H](CCCNC(=N)N)C(=O)N[C@@H](C)C(=O)N[C@@H](Cc1ccc(O)cc1)C(=O)N[C@@H](CCCNC(=N)N)C(=O)N[C@@H](CCCNC(=N)N)C(N)=O` [Guavanin 10] (H-RYLMEYAEQAKRDAKRAYRR-NH2) showed a Hemolysis (human erythrocytes) greater than 200 µg/mL and an MIC [1] of 200 µg/mL (≈ 77.7 µM).

In the case of `CSCC[C@H](NC(=O)[C@H](Cc1ccc(O)cc1)NC(=O)[C@H](CCCNC(=N)N)NC(=O)[C@@H](N)CCCNC(=N)N)C(=O)N[C@@H](CCC(=O)O)C(=O)N[C@@H](CS)C(=O)N[C@@H](Cc1ccc(O)cc1)C(=O)N[C@@H](CCC(=O)O)C(=O)N[C@@H](CCC(N)=O)C(=O)N[C@@H](C)C(=O)N[C@@H](CCC(=O)O)C(=O)N[C@@H](CCCNC(=N)N)C(=O)N[C@@H](Cc1ccc(O)cc1)C(=O)N[C@@H](Cc1ccccc1)C(=O)N[C@@H](CCCNC(=N)N)C(=O)N[C@@H](CCCNC(=N)N)C(=O)N[C@@H](Cc1ccccc1)C(=O)NCC(=O)N[C@@H](CCCNC(=N)N)C(=O)N[C@@H](CCCNC(=N)N)C(N)=O` [Guavanin 13] (H-RRYMECYEQAERYFRRFGRR-NH2), the Hemolysis (human erythrocytes) is reported as greater than 200 µg/mL and the MIC [1] is reported as 25 µg/mL (≈ 9.02 µM).

In the case of `CSCC[C@H](NC(=O)[C@H](Cc1ccc(O)cc1)NC(=O)[C@H](C)NC(=O)[C@@H](N)CCCNC(=N)N)C(=O)N[C@@H](CCC(=O)O)C(=O)N[C@@H](C)C(=O)N[C@@H](CC(C)C)C(=O)N[C@@H](CCCNC(=N)N)C(=O)N[C@@H](CCC(N)=O)C(=O)N[C@@H](C)C(=O)N[C@@H](CCC(=O)O)C(=O)N[C@@H](CCCNC(=N)N)C(=O)N[C@@H](CC(C)C)C(=O)NCC(=O)N[C@@H](CC(N)=O)C(=O)N[C@@H](CCCNC(=N)N)C(=O)N[C@H](C(=O)N[C@@H](C)C(=O)N[C@@H](CCCNC(=N)N)C(=O)N[C@@H](CCCNC(=N)N)C(N)=O)[C@@H](C)O` [Guavanin 9] (H-RAYMEALRQAERLGNRTARR-NH2), the Hemolysis (human erythrocytes) is reported as greater than 200 µg/mL and the MIC [1] is reported as greater than 200 µg/mL.

`CC[C@H](C)[C@H](NC(=O)[C@H](CCCNC(=N)N)NC(=O)[C@H](CCC(=O)O)NC(=O)[C@H](Cc1ccc(O)cc1)NC(=O)[C@H](CCC(N)=O)NC(=O)[C@H](CCCCN)NC(=O)[C@H](CCSC)NC(=O)CNC(=O)[C@H](CCCNC(=N)N)NC(=O)[C@@H](N)CCCNC(=N)N)C(=O)N[C@@H](CO)C(=O)N[C@@H](CCCNC(=N)N)C(=O)N[C@@H](CC(=O)O)C(=O)N[C@@H](C)C(=O)N[C@@H](CC(N)=O)C(=O)N[C@@H](CCCNC(=N)N)C(=O)N[C@@H](CO)C(=O)N[C@@H](Cc1ccc(O)cc1)C(=O)N[C@@H](CCCNC(=N)N)C(=O)N[C@@H](CCCNC(=N)N)C(N)=O` [Guavanin 1] (H-RRGMKQYERISRDANRSYRR-NH2) gave a Hemolysis (human erythrocytes) greater than 200 µg/mL and an MIC [1] of 200 µg/mL (≈ 77 µM).

Work on `CC[C@H](C)[C@H](NC(=O)[C@H](C)NC(=O)[C@H](CCC(=O)O)NC(=O)[C@H](CCC(=O)O)NC(=O)[C@H](Cc1ccc(O)cc1)NC(=O)[C@H](CCC(N)=O)NC(=O)[C@H](CCCNC(=N)N)NC(=O)[C@H](CCSC)NC(=O)[C@H](Cc1ccc(O)cc1)NC(=O)[C@H](CCCCN)NC(=O)[C@@H](N)CCCNC(=N)N)C(=O)N[C@@H](CCCNC(=N)N)C(=O)N[C@@H](CC(=O)O)C(=O)NCC(=O)N[C@@H](CC(N)=O)C(=O)N[C@@H](CCCNC(=N)N)C(=O)N[C@@H](CO)C(=O)N[C@H](C(=O)N[C@@H](CCCNC(=N)N)C(=O)N[C@@H](CCCNC(=N)N)C(N)=O)[C@@H](C)CC` [Guavanin 3] (H-RKYMRQYEEAIRDGNRSIRR-NH2) yielded a Hemolysis (human erythrocytes) greater than 200 µg/mL and an MIC [1] greater than 200 µg/mL.

Work on `CC[C@H](C)[C@H](NC(=O)CN)C(=O)NCC(=O)N[C@@H](CCCCN)C(=O)N[C@@H](Cc1ccccc1)C(=O)N[C@@H](CC(C)C)C(=O)N[C@@H](Cc1c[nH]cn1)C(=O)N[C@@H](CO)C(=O)N[C@@H](C)C(=O)N[C@@H](CCCCN)C(=O)N[C@@H](CCCCN)C(=O)N[C@@H](Cc1ccccc1)C(=O)NCC(=O)N[C@@H](CCCCN)C(=O)N[C@@H](C)C(=O)N[C@@H](Cc1ccccc1)C(=O)N[C@H](C(=O)NCC(=O)N[C@@H](CCC(=O)O)C(=O)N[C@H](C(=O)N[C@@H](CCSC)C(=O)N[C@@H](CC(N)=O)C(=O)N[C@@H](CO)C(N)=O)[C@@H](C)CC)C(C)C` [Magainin 2, reference compound] (H-GIGKFLHSAKKFGKAFVGEIMNS-NH2) yielded an MIC [1] of 100 µg/mL (≈ 40.6 µM).
